Reference: patent publication US9550000B2, “Compositions, methods, and systems for the synthesis and use of imaging agents” (Lantheus Medical Imaging, Inc., priority 2011, dated 2017)
pIC50, pKi: −log10 of the molar value. Counter-ions that a name gives are not always drawn. Like-named read-outs stand apart in the source and are kept apart here.

Columns and labels:
PC-12 cells = assay: PC-12 binding assay (cell uptake with or without desipramine); format: cell-based, rat; settings: 0.1 μCi test agent, 60 min at 37° C.; for PC-12 (% bound) Block: with 1 μM desipramine (nonspecific uptake); for PC-12 (% bound) Control: without desipramine (total uptake)
Procedure: Rat pheochromocytoma cell line (PC-12) were purchased from the American Type Culture Collection (ATCC) then cultured in collagen-coated flasks (BD Bio Coat Collagen Type 1, BD Biosciences) using a growth media composed of F-12 K media, 2 mM L-glutamine, 15% horse serum, 2.5% fetal bovine serum (FBS) and 1% penicillin-streptomycin.
Prepared PC-12 cells were seeded into 6-well plates at a density of 1×10^6 cells/well with 2 mL of growth media and maintained 24 h at 37° C. under a 5% CO2 atmosphere. The media was exchanged and each well treated with 0.1 μCi test agent, with or without 1 μM desipramine. The resulting mixture was incubated for 60 min at 37° C. and 5% CO2 then centrifuged at 500×g for 3 min and washed with PBS buffer. Radioactivity associated with the cells was then measured, and total uptake determined in the wells without desipramine; nonspecific uptake was measured in the associated wells containing desipramine. The specific NET mediated cell uptake is calculated as percent total uptake minus percent nonspecific uptake.

[1] = Tissue distribution in rats; format: in vivo; settings: bolus iv injection
Procedure: (§1) Male Sprague Dawley rats (300-500 g, Taconic), and male New Zealand rabbits (3-4 kg, Covance) were used in accordance with our Institutional Animal Care and Use Committee. Rats were anesthetized with sodium pentobarbital (50 mg/kg, i.p.) and the left femoral vein cannulated with PESO tubing for drug injection. Rabbits were pre-sedated with acepromazine (0.75 mg/kg i.m.) then anesthetized with ketamine (40 mg/kg, i.m.) and xylazine (8 mg/kg, i.m); the marginal ear vein was cannulated for drug injection. Additional doses of anesthetics were given as needed.
(§2) After preparation, each animal received a bolus injection of the test agent via the venous catheter. Rats and rabbits were euthanized after the injection and samples of the blood, heart, lung, liver, spleen, kidney, femur and muscle were collected. All samples were weighed and counted for radioactivity (Wallac Wizard 1480, PerkinElmer Life and Analytical Sciences, Shelton, Conn.); net radioactivity administered in each animal was determined by subtracting the residual activity in both the syringe and venous catheter. Tissue uptake of each agent was determined as a percentage of the injected dose per gram tissue (% ID/g).

[2] = target: T1, human norepinephrine transporter (Homo sapiens, UniProt P23975); assay: Norepinephrine transporter binding assay ([3H]desipramine competition, MDCK cell membranes); settings: competition with [3H]desipramine 2 nM, 2 h on ice; read-out: NET Affinity
T1 construct: expressed in transfected cells; host or cells: MDCK cells (membrane preparation)
Procedure: Individual inhibitors were dissolved in incubation buffer (50 mM Tris-HCl, 10% sucrose, pH 7.4) at appropriate dilutions. The inhibitor solutions were added to the wells of a microtiter plate (40 μL/well) in triplicate. Each well of test agent (and appropriate control wells) was treated with a mixture of MDCK cell membrane preparation (22.4 μg of membrane) expressing human norepinephrine transporter (Bmax=3.7 pmol norepinephrine transporter/mg protein), and [^3H]desipramine (2 nM, 64.8 Ci/mmol) in a total volume of 0.2 mL. The resulting mixtures were incubated for 2 h on ice.
A 96 well GF/C filter plate was presoaked with coating buffer (0.5% polyvinylpyrrolidine and 0.1% Tween 20) for 2 h at room temperature, then washed with incubation buffer (6×0.2 mL). The competition reactions were transferred to the coated plate and filtered. The filter plate was washed (6×0.2 mL) with ice cold wash buffer (50 mM Tris-HCl, 0.9% NaCl, pH 7.4) then dried overnight and treated with 25 μL scintillation fluid for analysis on a plate reader (Microbeta TriLux 1450 LSC and Luminescence counter, Perkin Elmer, Shelton Conn.).

[3] = Tissue distribution in rabbits; format: in vivo; settings: bolus iv injection
Procedure: as §1, §2

[4] = system: SK-N-SH cells with expression of NAT; assay: Cell uptake comparison in SK-N-SH cells with or without desipramine; format: cell-based, human; settings: for inhibition of cell uptake by blockade of NAT with desipramine: SK-N-SH cells, desipramine 1 μM
Procedure: Imaging Agent-1 cell uptake in comparison with ^3H-NA and ^123I-MIBG was assayed in human neuroblastoma cells (SK-N-SH, ATCC) with expression of NAT (Buck et al., Cancer Res. 1985; 45(12 Pt 1):6366-70). Cells were prepared in 6-well plates at a density of 1×10^6 cells/well in 2 mL media. Imaging Agent-1, ^3H-NA or ^123I-MIBG at 3.7 kBq was added to each well with or without desipramine (1 μM), a selective NAT inhibitor. In assay with NA, pargyline (10 μM) was included to inhibit monoamine oxidase activity. Following incubation for 60 minutes at 37° C., cells were washed twice with ice-cold phosphate-buffered saline, trypsinized and centrifuged at 1000 g for 3 minutes to collect cell pellet. Radioactivity associated with the cells was measured with a γ-(Wallac Wizard 1480, PerkinElmer) or β-counter (Microbeta TriLux 1450 LSC, PerkinElmer). Each assay was performed in triplicate and the uptake was expressed as a percent of total radioactivity added to the well.

[5] = system: noradrenaline transporter (NAT) in SK-N-SH cells; assay: Competitive inhibition of Imaging Agent-1 uptake in SK-N-SH cells; format: cell-based, human; settings: non-radioactive competitor 0.1-100 μM, 37° C., 60 minutes, read-out: IC50 for inhibition of Imaging Agent-1 cell uptake
Procedure: For the competitive inhibition assay, Imaging Agent-1 at 3.7 kBq was incubated in SK-N-SH cells with various concentrations (0.1, 1, 10, or 100 μM) of non-radioactive NA, MIBG or ^19F-Imaging Agent-1 (self) at 37° C. for 60 minutes. Similarly, following the incubation, Imaging Agent-1 cell uptake was determined. The IC50 value of each agent was determined using GraphPad software (v5).

T1 sequence (P23975 whole entry): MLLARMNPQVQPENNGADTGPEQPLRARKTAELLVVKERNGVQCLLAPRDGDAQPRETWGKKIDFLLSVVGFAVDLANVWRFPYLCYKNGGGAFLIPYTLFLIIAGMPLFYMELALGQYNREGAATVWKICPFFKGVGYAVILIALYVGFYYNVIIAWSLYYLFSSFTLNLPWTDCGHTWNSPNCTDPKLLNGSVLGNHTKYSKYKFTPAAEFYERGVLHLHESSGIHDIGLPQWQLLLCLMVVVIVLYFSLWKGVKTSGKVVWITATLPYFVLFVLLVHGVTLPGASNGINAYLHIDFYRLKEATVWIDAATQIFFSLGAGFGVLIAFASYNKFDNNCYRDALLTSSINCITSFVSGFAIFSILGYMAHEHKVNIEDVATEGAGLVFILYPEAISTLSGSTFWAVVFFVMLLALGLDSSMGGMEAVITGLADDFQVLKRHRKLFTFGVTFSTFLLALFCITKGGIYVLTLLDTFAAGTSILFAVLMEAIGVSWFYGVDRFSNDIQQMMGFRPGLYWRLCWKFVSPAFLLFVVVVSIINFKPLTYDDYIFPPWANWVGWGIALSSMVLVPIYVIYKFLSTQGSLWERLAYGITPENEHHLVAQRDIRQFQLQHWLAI

N=C1NCC(c2ccc(OCCF)cc2)N1 (centres unmarked) [Example 1, 4-(4-(2-fluoroethoxy)phenyl)imidazolidin-2-imine]
PC-12 (% bound) Block (PC-12 cells): 0.30 % bound | PC-12 (% bound) Control (PC-12 cells): 3.1 % bound | Rat Blood [1]: 0.18 % ID/g | Rat Heart [1]: 1.03 % ID/g | Rat Liver [1]: 0.15 % ID/g | Rat Lung [1]: 0.24 % ID/g | pKi [2]: 5.14

N=C1NCC(c2ccc(OCCF)c(Br)c2)N1 (centres unmarked) [Example 2, 4-(3-bromo-4-(2-fluoroethoxy)phenyl)imidazolidin-2-imine, hydrochloric acid salt]
PC-12 (% bound) Block (PC-12 cells): 0.60 % bound | PC-12 (% bound) Control (PC-12 cells): 3.20 % bound | Rat Blood [1]: 0.19 % ID/g | Rat Heart [1]: 1.33 % ID/g | Rat Liver [1]: 0.25 % ID/g | Rat Lung [1]: 0.94 % ID/g | pKi [2]: 4.95

N=C(N)NCc1ccc(CF)c(Br)c1 [Example 3, 1-(3-bromo-4-(fluoromethyl)benzyl)guanidine]
PC-12 (% bound) Block (PC-12 cells): 2.36 % bound | PC-12 (% bound) Control (PC-12 cells): 32.76 % bound | Rabbit Blood [3]: 0.01 % ID/g | Rabbit Heart [3]: 0.29 % ID/g | Rabbit Liver [3]: 0.02 % ID/g | Rabbit Lung [3]: 0.39 % ID/g | Rat Blood [1]: 0.35 ± 0.15 % ID/g | Rat Heart [1]: 0.71 ± 0.24 % ID/g | Rat Liver [1]: 0.15 ± 0.03 % ID/g | Rat Lung [1]: 1.12 ± 0.29 % ID/g | pKi [2]: 5.13

N=C(N)NCc1ccc(COCCF)c(Br)c1 [Example 4, 1-(3-bromo-4-((2-fluoroethoxy)methyl)benzyl)guanidine]
PC-12 (% bound) Block (PC-12 cells): 0.50 % bound | PC-12 (% bound) Control (PC-12 cells): 1.00 % bound | Rabbit Blood [3]: 0.014 % ID/g | Rabbit Heart [3]: 0.025 % ID/g | Rabbit Liver [3]: 0.012 % ID/g | Rabbit Lung [3]: 0.031 % ID/g | Rat Blood [1]: 0.13 ± 0.02 % ID/g | Rat Heart [1]: 1.04 ± 0.95 % ID/g | Rat Liver [1]: 0.37 ± 0.24 % ID/g | Rat Lung [1]: 0.34 ± 0.18 % ID/g | pKi [2]: 5.27

N=C(N)NCc1ccc(CCF)cc1 [Example 5, 1-[4-(2-fluoroethyl)benzyl]guanidine]
PC-12 (% bound) Block (PC-12 cells): 0.90 % bound | PC-12 (% bound) Control (PC-12 cells): 1.00 % bound | Rat Blood [1]: 0.69 % ID/g | Rat Heart [1]: 1.23 % ID/g | Rat Liver [1]: 0.26 % ID/g | Rat Lung [1]: 0.59 % ID/g | pKi [2]: 4.73

N=C(N)NCc1ccc(CCF)c(Br)c1 [Example 8, 1-(3-bromo-4-(2-fluoroethyl)benzyl)guanidine]
PC-12 (% bound) Block (PC-12 cells): 0.60 % bound | PC-12 (% bound) Control (PC-12 cells): 1.30 % bound | Rat Blood [1]: 0.21 % ID/g | Rat Heart [1]: 1.61 % ID/g | Rat Liver [1]: 0.27 % ID/g | Rat Lung [1]: 0.94 % ID/g | pKi [2]: 4.76

N=C(N)NCc1ccc2cc(OCCF)ccc2c1 [Example 11, 1-((6-(2-fluoroethoxy)naphthalen-2-yl)methyl)guanidine]
PC-12 (% bound) Block (PC-12 cells): 2.70 % bound | PC-12 (% bound) Control (PC-12 cells): 23.90 % bound | Rabbit Blood [3]: 0.04 ± 0.01 % ID/g | Rabbit Heart [3]: 0.39 ± 0.02 % ID/g | Rabbit Liver [3]: 0.02 ± 0.00 % ID/g | Rabbit Lung [3]: 0.39 ± 0.11 % ID/g | Rat Blood [1]: 0.51 ± 0.11 % ID/g | Rat Heart [1]: 1.74 ± 0.27 % ID/g | Rat Liver [1]: 0.61 ± 0.40 % ID/g | Rat Lung [1]: 2.71 ± 0.51 % ID/g | pKi [2]: 6.92

N=C(N)NCc1ccc2cc(OCCCF)ccc2c1 [Example 12, 1-((6-(3-fluoropropoxy)naphthalen-2-yl)methyl)guanidine]
PC-12 (% bound) Block (PC-12 cells): 0.50 % bound | PC-12 (% bound) Control (PC-12 cells): 5.30 % bound | Rabbit Blood [3]: 0.04 ± 0.02 % ID/g | Rabbit Heart [3]: 0.29 ± 0.09 % ID/g | Rabbit Liver [3]: 0.02 ± 0.01 % ID/g | Rabbit Lung [3]: 0.28 ± 0.17 % ID/g | Rat Blood [1]: 0.37 ± 0.05 % ID/g | Rat Heart [1]: 1.93 ± 0.11 % ID/g | Rat Liver [1]: 0.18 ± 0.01 % ID/g | Rat Lung [1]: 2.09 ± 0.08 % ID/g | pKi [2]: 6.85

N=C(N)NCCc1c[nH]c2ccc(OCCF)cc12 [Example 21, 1-(2-(5-(2-fluoroethoxy)-1H-indol-3-yl)ethyl)guanidine]
PC-12 (% bound) Block (PC-12 cells): 0.10 % bound | PC-12 (% bound) Control (PC-12 cells): 0.10 % bound | Rat Blood [1]: 0.41 % ID/g | Rat Heart [1]: 0.35 % ID/g | Rat Liver [1]: 1.01 % ID/g | Rat Lung [1]: 0.38 % ID/g | pKi [2]: 5.92

N=C(N)NCCc1ccc(CCCF)cc1 [Example 33, 1-(4-(3-fluoropropyl)phenethyl)guanidine]
PC-12 (% bound) Block (PC-12 cells): 1.50 % bound | PC-12 (% bound) Control (PC-12 cells): 2.30 % bound | Rat Blood [1]: 0.10 ± 0.01 % ID/g | Rat Heart [1]: 1.94 ± 0.16 % ID/g | Rat Liver [1]: 0.21 ± 0.04 % ID/g | Rat Lung [1]: 0.66 ± 0.11 % ID/g | pKi [2]: 5.40

N=C(N)NCc1ccc(OCCC[18F])c(Br)c1 [Imaging Agent-1]
uptake in SK-N-SH cells (percent of total radioactivity added) ([4]; 3.7 kBq, 60 minutes at 37° C., without desipramine): 24.6±9% | inhibition of cell uptake by blockade of NAT with desipramine [4]: 90±3%

N=C(N)NCc1cccc(I)c1 [MIBG, meta-iodobenzylguanidine]
pIC50 [5]: 6.68

NC[C@H](O)c1ccc(O)c(O)c1 [NA, noradrenaline]
pIC50 ([5]; Homo sapiens, 1 h): 5.96

N=C(N)NCc1cccc([123I])c1 [^123I-MIBG, ^123I-meta-iodobenzylguanidine, reference compound]
inhibition of cell uptake by blockade of NAT with desipramine [4]: 94±2%

^3H-noradrenaline [^3H-NA, reference compound]
inhibition of cell uptake by blockade of NAT with desipramine [4]: 97±2%
